Reference: patent publication US11236085B2, “PD-1/PD-L1 inhibitors” (Gilead Sciences, Inc., priority 2018, dated 2022)

Legend:
[1] = target: T1, PD-1/PD-L1 (Homo sapiens, UniProt Q9NZQ7); assay: PD-1/PD-L1 biochemical protein-protein interaction assay (ALPHA); format: binding; details: 0.3 nM His tagged PD-L1, 2.5 nM biotinylated Fc-PD-1; 60 minutes at 25° C.; read-out: IC50 PD-L1-PD1
Protocol: PD-1/PD-L1 & CTLA/CD80 Biochemical Protein-Protein Interaction Assay
Compounds were tested in biochemical protein-protein interaction assays to determine if they can specifically block the interaction between the extracellular domains of PD-1/PD-L1 or CTLA/CD80. Binding of the protein pairs is measured using a bead based Amplified Luminescent Proximity Homogeneous Assay (ALPHA) platform. Binding of each protein pair results in proximity of the donor and acceptor beads which leads to an increase in ALPHA signal. Disruption of the protein-protein interaction with a test compound results in a decrease in ALPHA signal. Assays are performed in 25 mM Hepes (pH 7.4), 150 mM NaCl, 3.4 mM EDTA, 0.005% Tween 20, and 0.01% BSA. Final protein concentration in the assays were 0.3 nM (His tagged PD-L1), 2.5 nM (biotinylated Fc-PD-1), 1 nM (His tagged CTLA4) and 1 nM (biotinylated CD80). After an assay reaction time of 60 minutes at 25° C., binding was measured with addition of 20 μg/mL ALPHA assay acceptor beads (anti-His coated) and 20 µg/mL ALPHA assay donor beads (streptavidin coated). IC50 values were calculated from the fit of the dose-response curves to a four-parameter equation. Representative data are shown below in Table 3.
Target sequence in this assay (Q9NZQ7 19-238 limits assumed): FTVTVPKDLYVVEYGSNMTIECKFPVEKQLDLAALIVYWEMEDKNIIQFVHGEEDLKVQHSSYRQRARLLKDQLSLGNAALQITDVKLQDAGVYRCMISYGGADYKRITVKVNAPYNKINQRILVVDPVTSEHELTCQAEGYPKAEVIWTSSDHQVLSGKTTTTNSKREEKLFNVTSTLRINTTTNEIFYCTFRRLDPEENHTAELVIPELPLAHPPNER

[2] = target: T1, PD-1/PD-L1; assay: PD-1/PD-L1 NFAT reporter assay (co-culture of aAPC-PD-L1 CHO cells and Jurkat cells overexpressing PD-1, NFAT luciferase); format: cell-based; set-up: expressed in transfected cells; host or cells: CHO cells (aAPC-PD-L1) co-cultured with Jurkat cells overexpressing PD-1; details: co-culture incubated for 6 hrs at 37° C.; luciferase under NFAT control
Protocol: PD-1/PD-L1 NFAT Reporter Assay
Compounds were tested in a functional co-culture reporter assay in which TCR-mediated NFAT activity is inhibited by the engagement of PD-1 with PD-L1. […] CHO cells expressing surface-bound anti-CD3 antibodies and PD-L1 (artificial antigen presenting cells, aAPC-PD-L1) were first seeded overnight. Jurkat cells overexpressing PD-1 and expressing a luciferase construct under NFAT control are diluted in RPMI assay medium (RPMI 1640 with 2% FBS), mixed with compounds, and immediately seeded on the monolayer of aAPC-PD-L1. The co-culture is then incubated for 6 hrs at 37° C. Luciferase activity is assessed by adding the ONE-Glo reagent and measuring luminescence with a plate reader. EC50 values are calculated from the fit of the dose-response curves to a four-parameter equation (Table 4).
Target sequence in this assay (Q9NZQ7 19-290): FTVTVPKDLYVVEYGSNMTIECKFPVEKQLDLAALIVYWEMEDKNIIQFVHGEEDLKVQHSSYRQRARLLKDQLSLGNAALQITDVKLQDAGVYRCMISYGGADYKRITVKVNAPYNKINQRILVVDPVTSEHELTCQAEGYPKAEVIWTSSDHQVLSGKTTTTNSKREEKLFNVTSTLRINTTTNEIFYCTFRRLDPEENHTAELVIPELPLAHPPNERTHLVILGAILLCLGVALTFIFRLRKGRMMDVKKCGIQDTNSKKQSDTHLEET

[3] = target: T2, PD-L1 (Homo sapiens, UniProt Q9NZQ7); assay: PD-L1/PD-L1 dimerization biochemical protein-protein interaction assay (ALPHA); details: 0.5 nM His tagged PD-L1 and 0.5 nM FLAG tagged PD-L1; compound induced dimerization; read-out: AC50 PDL1 Dimer 1 nM
T2 construct: determine if they can specifically dimerize the extracellular domains of PD-L1
T2 sequence (Q9NZQ7 19-238 limits assumed): as the sequence (Q9NZQ7 19-238 limits assumed) above
T2 sequence (Q9NZQ7 19-238 limits assumed): as above
Protocol: PD-L1/PD-L1 Dimerization Biochemical Protein-Protein Interaction Assay
Compounds were tested in biochemical protein-protein interaction assays to determine if they can specifically dimerize the extracellular domains of PD-L1. Dimerization of the proteins (His-tagged PD-L1 and FLAG-tagged PD-L1) is measured using a bead based Amplified Luminescent Proximity Homogeneous Assay (ALPHA) platform. […] Assays are performed in 25 mM Hepes (pH 7.4), 150 mM NaCl, 3.4 mM EDTA, 0.005% Tween 20, and 0.01% BSA. Final protein concentration in the assays were 0.5 nM (His tagged PD-L1) and 0.5 nM (FLAG tagged PD-L1). After an assay reaction time of 2 hours at 25° C., 20 μg/mL (final assay concentration) ALPHA assay acceptor beads (anti-His coated) were added and incubated for 60 minutes at 25° C. Binding was measured following a final 60 minute incubation with 40 μg/mL (final assay concentration) ALPHA assay donor beads (anti-FLAG coated). AC50 values were calculated from the fit of the dose-response curves to a four-parameter equation (Table 4).

Structure (SMILES)	IC50 [1] [nM]	EC50 [2] [nM]	AC50 [3] [nM]
COc1nc(O[C@H]2CCc3c(-c4cccc(-c5ccc6c(n5)CCNC6)c4Cl)cccc32)c(C(F)(F)F)cc1CN1CC[C@@H](C(=O)O)C1 [Compound 1, (R)-1-((6-(((S)-4-(2-chloro-3-(5,6,7,8-tetrahydro-1,6-naphthyridin-2-yl)phenyl)-2,3-dihydro-1H-inden-1-yl)oxy)-2-methoxy-5-(trifluoromethyl)pyridin-3-yl)methyl)pyrrolidine-3-carboxylic acid]	0.064	1260	135
Cc1c(COc2cc(OCc3cncc(C#N)c3)c(CN[C@@](C)(CO)C(=O)O)cc2Cl)cccc1-c1cccc(-c2ccc3c(c2)CNCC3NC(=O)NCC#N)c1C (stereo partly drawn) [Compound 16]	0.09	102	30.9
Cc1c(COc2cc(OCc3cncc(C#N)c3)c(CN[C@@](C)(CO)C(=O)O)cc2Cl)cccc1-c1cccc(-c2ccc3c(c2)CNCC3N)c1C (stereo partly drawn) [Compound 18]	0.158	73	54.9
C[C@](CO)(NCc1cc(Cl)c(OCc2cccc(-c3cccc(-c4ccc5c(c4)CNCC5)c3Cl)c2Cl)nc1OCc1cncc(C#N)c1)C(=O)O [Compound 29]	0.368	200	31.5
Cc1c(COc2cc(OCc3cc(C#N)cc(C#N)c3)c(CN[C@@](C)(CO)C(=O)O)cc2Cl)cccc1-c1cccc(-c2ccc3c(c2)CNCC3)c1C [Compound 8]	0.293	90	42.9
CC(=O)NCC1Cc2ccc(-c3cccc(-c4cccc(COc5cc(OCc6cncc(C#N)c6)c(CN[C@@](C)(CO)C(=O)O)cc5Cl)c4C)c3C)cc2CN1 (stereo partly drawn) [Compound 26]	0.064	174	48.9
Cc1c(COc2cc(OCc3cc(Cl)cc(C#N)c3)c(CN[C@@](C)(CO)C(=O)O)cc2Cl)cccc1-c1cccc(-c2ccc3c(c2)CNCC3)c1C [Compound 7]	0.955	142	75
Cc1c(COc2nc(OCc3cncc(C#N)c3)c(CN[C@@](C)(CO)C(=O)O)cc2Cl)cccc1-c1cccc(-c2ccc3c(c2)CNC(COC(=O)NCCO)C3)c1C (stereo partly drawn) [Compound 25]	0.064	108	53.5
COc1nc(-c2cccc(-c3cccc(-c4nc5n(n4)CCNC5)c3Cl)c2Cl)ccc1CNC[C@@H]1CCC(=O)N1 [Compound 30]	0.247	148	690
COc1nc(-c2cccc(-c3cccc(-c4nc5c(s4)CNCC5)c3Cl)c2Cl)ccc1CNC[C@@H]1CCC(=O)N1 [Compound 35]	0.814	105	281
C[C@](CO)(NCc1cc(Br)c(OCc2cccc(-c3cccc(-c4ccc5c(c4)CNCC5)c3Cl)c2Cl)nc1OCc1cncc(C#N)c1)C(=O)O [Compound 21]	0.23	166	28.3
COc1nc(-c2cccc(-c3cccc(-c4cc5c(s4)CCNC5)c3Cl)c2Cl)ccc1CN1CC2(CCC(=O)N2)C1 [Compound 32]	1.14	288	181
COc1nc(O[C@H]2CCc3c(-c4cccc(-c5nc6c(s5)CCNC6)c4Cl)cccc32)c(C(F)(F)F)cc1CN1CC[C@@H](C(=O)O)C1 [Compound 2, (R)-1-((6-(((S)-4-(2-chloro-3-(4,5,6,7-tetrahydrothiazolo[4,5-c]pyridin-2-yl)phenyl)-2,3-dihydro-1H-inden-1-yl)oxy)-2-methoxy-5-(trifluoromethyl)pyridin-3-yl)methyl)pyrrolidine-3-carboxylic acid]	0.064	3250	23
Cc1c(COc2cc(OCc3cncc(C#N)c3)c(CN[C@@](C)(CO)C(=O)O)cc2Cl)cccc1-c1cccc(-c2ccc3c(c2)NC(=O)CNC3)c1C [Compound 10]	0.187	103	249
Cc1c(COc2cc(OCc3cncc(C#N)c3)c(CN[C@@](C)(CO)C(=O)O)cc2Cl)cccc1-c1cccc(-c2ccc3c(c2)CNCC3NC(=O)NC2CC2)c1C (stereo partly drawn) [Compound 14]	0.064	69	10.7

The remaining compounds from weak to strong by IC50 [1], led by results:

IC50 [1] [nM]	EC50 [2] [nM]	AC50 [3] [nM]	Structure (SMILES)
1.13	163	174	COc1nc(-c2cccc(-c3cccc(-c4cc5c(s4)CNCC5)c3Cl)c2Cl)ccc1CNC[C@@H]1CCC(=O)N1 [Compound 34]
0.686	178	599	Cc1c(COc2cc(OCc3cncc(C#N)c3)c(CNC[C@@H](O)CC(=O)O)cc2Cl)cccc1-c1cccc(-c2ccc3c(c2)NC(=O)CNC3)c1C [Compound 11]
0.588	142	256	COc1nc(-c2cccc(-c3cccc(-c4nc5c(s4)CCNC5)c3Cl)c2Cl)ccc1CNC[C@@H]1CCC(=O)N1 [Compound 36]
0.427	170	301	COc1nc(-c2cccc(-c3cccc(-c4ccc5c(c4)OCCNC5)c3Cl)c2Cl)ccc1CNC[C@@H](O)CC(=O)O [Compound 6]
0.367	161	39.7	C[C@@](CO)(NCc1cc(Cl)c(OCc2cccc(-c3cccc(-c4ccc5c(c4)CNCC5)c3Cl)c2Cl)nc1OCc1cc(C#N)cc(C#N)c1)C(=O)O [Compound 28]
0.318	202	272	COc1nc(-c2cccc(-c3cccc(-c4cc5c(cn4)CNC5)c3Cl)c2Cl)ccc1CNC[C@@H]1CCC(=O)N1 [Compound 23]
0.312	155	30.6	C[C@](CO)(NCc1cc(Cl)c(OCc2cccc(-c3cccc(-c4ccc5c(c4)CNCC5)c3Cl)c2Cl)nc1OCc1cc(C#N)cc(C#N)c1)C(=O)O [Compound 27]
0.174	128	31.6	Cc1c(COc2cc(OCc3cncc(C#N)c3)c(CNC[C@@H](O)CC(=O)O)cc2Cl)cccc1-c1cccc(-c2ccc3c(c2)CNCC3NC(=O)NCC#N)c1C (stereo partly drawn) [Compound 17]
0.17	165	55.3	CNC(=O)NC1CNCc2cc(-c3cccc(-c4cccc(-c5ccc(CNC[C@@H]6CCC(=O)N6)c(OC)n5)c4Cl)c3Cl)ccc21 (stereo partly drawn) [Compound 12]
0.151	87	37.7	C[C@@](CO)(NCc1cc(Br)c(OCc2cccc(-c3cccc(-c4ccc5c(c4)CNCC5)c3Cl)c2Cl)nc1OCc1cncc(C#N)c1)C(=O)O [Compound 22]
0.126	173	63.8	Cc1c(COc2cc(OCCCC#N)c(CN[C@@](C)(CO)C(=O)O)cc2Cl)cccc1-c1cccc(-c2ccc3c(c2)CNCC3)c1C [Compound 9]
0.086	184	41.3	Cc1c(COc2cc(OCc3cncc(C#N)c3)c(CN[C@@](C)(CO)C(=O)O)cc2Cl)cccc1-c1cccc(-c2ccc3c(c2)C2CCC(C3)N2)c1C (stereo partly drawn) [Compound 24]
0.064	90	86.5	Cc1c(COc2cc(OCc3cncc(C#N)c3)c(CN[C@@](C)(CO)C(=O)O)cc2Cl)cccc1-c1cccc(-c2ccc3c(c2)NCCNC3)c1C [Compound 4]
0.064	123	76.9	Cc1c(COc2cc(OCc3cncc(C#N)c3)c(CN[C@@](C)(CO)C(=O)O)cc2Cl)cccc1-c1cccc(-c2ccc3c(c2)CNCC3O)c1C (stereo partly drawn) [Compound 3]
0.064	59	7.47	CNC(=O)N[C@@H]1CNCc2cc(-c3cccc(-c4cccc(COc5cc(OCc6cncc(C#N)c6)c(CN[C@@](C)(CO)C(=O)O)cc5Cl)c4C)c3C)ccc21 [Compound 15]
